≈ marks a conversion by molar mass, not a printed value. Calls of active or inactive are those of the source. No cut-off for these calls is given here.
What was measured:
[1] = system: Staphylococcus aureus; assay: Antibacterial activity against Staphylococcus aureus incubated overnight by disk diffusion method; format: functional, organism-based
[2] = system: Enterococcus faecium; assay: Antibacterial activity against Enterococcus faecium incubated overnight by disk diffusion method; format: functional, organism-based
[3] = system: Escherichia coli; assay: Antibacterial activity against Escherichia coli incubated overnight by disk diffusion method; format: functional, organism-based
[4] = system: Streptococcus pneumoniae; assay: Antibacterial activity against Streptococcus pneumoniae R6 incubated overnight by disk diffusion method; format: functional
[5] = system: Enterococcus faecalis; assay: Antibacterial activity against Enterococcus faecalis incubated overnight by disk diffusion method; format: functional, organism-based
[6] = system: Streptococcus pneumoniae; assay: Antibacterial activity against Streptococcus pneumoniae R6 at 0.5 to 3 mg/ml incubated overnight by disk diffusion method; format: functional, organism-based
[7] = biological target: T1, Glutamate racemase (Streptococcus pneumoniae serotype 2 (strain D39 / NCTC 7466), UniProt Q04IS7); assay: Inhibition of Streptococcus pneumoniae glutamate racemase
T1 sequence (Q04IS7 whole entry): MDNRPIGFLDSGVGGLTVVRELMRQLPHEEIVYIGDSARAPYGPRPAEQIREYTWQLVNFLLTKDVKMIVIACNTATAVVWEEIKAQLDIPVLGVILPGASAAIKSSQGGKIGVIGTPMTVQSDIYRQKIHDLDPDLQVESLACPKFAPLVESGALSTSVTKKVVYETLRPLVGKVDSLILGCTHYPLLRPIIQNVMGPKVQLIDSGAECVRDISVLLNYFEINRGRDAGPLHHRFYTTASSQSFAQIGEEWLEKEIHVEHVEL

[8] = system: Streptococcus pneumoniae; assay: Antibacterial activity against Streptococcus pneumoniae; format: functional
[9] = system: Streptococcus pneumoniae; assay: Ratio of MIC for Streptococcus pneumoniae to IC50 for Streptococcus pneumoniae glutamate racemase

## O=C(CC(NCCc1c[nH]c2ccccc12)C(=O)O)c1ccc(F)cc1 (stereo not given)
[1]
  Activity: inactive
[2]
  Activity: inactive
[3]
  Activity: inactive
[4]
  MIC: 1000 µg/mL (≈ 2820 µM)
[5]
  Activity: inactive

## O=C(CC(NCCc1c[nH]c2ccccc12)C(=O)O)c1ccc(Cl)cc1 (stereo not given)
[1]
  Activity: inactive
[2]
  Activity: inactive
[3]
  Activity: inactive
[6]
  Activity: inactive
[5]
  Activity: inactive

## O=C(CC(NCCc1c[nH]c2ccccc12)C(=O)O)c1ccc(Br)cc1 (stereo not given)
[1]
  Activity: inactive
[2]
  Activity: inactive
[3]
  Activity: inactive
[4]
  MIC: 1000 µg/mL (≈ 2410 µM)
[5]
  Activity: inactive

## N[C@H](C[C@H](C(=O)O)c1ccc(NC(=O)Nc2ccccc2)cc1)C(=O)O
[7]
  IC50: 1370 nM
[8]
  MIC: 16 µg/mL (≈ 44.8 µM)
[9]
  Ratio: 100

## N[C@H](C[C@H](C(=O)O)c1cccc(-c2ccco2)c1)C(=O)O
[7]
  IC50: 1730 nM
[8]
  MIC: 0.24 µg/mL (≈ 0.83 µM)

## Cc1ccc(C(=O)CC(NCCc2c[nH]c3ccccc23)C(=O)O)cc1 (stereo not given)
[1]
  Activity: inactive
[2]
  Activity: inactive
[3]
  Activity: inactive
[4]
  MIC: 1000 µg/mL (≈ 2850 µM)
[5]
  Activity: inactive
